Earlier results on one compound are cited in patent US5641787A, “Indole derivatives as dopamine D4 antagonists” (Merck, Sharp & Dohme Ltd., priority 1995, dated 1997).

Each structure is given as a SMILES string.

The conditions of this series: stated in Recl. Trav. Chim. Pays-Bas, 1954, 73, 629.

For the compound `c1ccc2c(c1)CCN(Cc1c[nH]c3ccccc13)C2` [3-(1,2,3,4-tetrahydroisoquinolin-2-yl)methyl-1H-indole], the oxytocic activity result is “oxytocic activity”.
